{"source": "patent US6106864A", "about": "“Pharmaceutical formulations containing darifenacin” (Pfizer Inc., priority 1995, dated 2000)", "test_system": "muscarinic M3 receptors over M1 receptors", "experiment": "Selectivity for muscarinic M3 receptors over M1 receptors", "conditions": "metabolite compared with darifenacin; \"It appears\"", "data": [{"smiles": "NC(=O)C(c1ccccc1)(c1ccccc1)[C@@H]1CCN(CCc2ccc3c(c2)C(O)CO3)C1", "note": "(stereo partly shown) [metabolite]", "values": [{"measurement": "less selective for muscarinic M3 receptors over M1 receptors in comparison with darifenacin", "result": 6, "unit": "fold"}]}]}
